# In patent US20230085307A1, “PYRIDAZINONE COMPOUND AND HERBICIDE” (NISSAN CHEMICAL CORPORATION, priority 2019, published 2023):
# Tested on: oval-leafed pondweed
# Assay: Test Example 1: herbicidal activity, application before weed generation under submerged conditions (Table 16, symbol C)
# Format: in vivo, oval-leafed pondweed (Monochoria vaginalis)
# Details: amount of applied herbicide 320 g/ha
# How it was run: (§1)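 Submerged Wagner pots (alluvial soil, 4 cm water) sown with weed seeds and planted with 2.5-leaf rice seedlings; emulsifiable concentrate diluted in water applied to water surface on sowing day. Held in greenhouse at 25-30 °C; injury scored 0-5 by herbicidal rate after three weeks.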
row,Compound,"Herbicidal effect, C: oval-leafed pondweed"
1,CCCOc1ccc(-c2sc3c(Cl)cccc3c2-c2c(OC(=O)CCC)c(C)nn(C)c2=O)cc1 [4-028],0 (Herbicidal rate of 5% or less (almost no effect))
2,CCCC(=O)Oc1c(C)nn(C)c(=O)c1-c1c(-c2ccc(SC)cc2)sc2c(F)cccc12 [4-051],0 (Herbicidal rate of 5% or less (almost no effect))

# Tested on: barnyard grass
# Assay: Test Example 3: herbicidal effect by foliage application, Wagner pot (Table 18, symbol H)
# Format: in vivo, barnyard grass (Echinochloa crus-galli)
# Details: 320 g/ha
# How it was run: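 Plants were sown in alluvial soil held under 0.1–0.5 cm standing water and grown 14 days in a greenhouse at 25–30 °C. An emulsifiable formulation, water-diluted to the set dose, was then sprayed onto the foliage, and effects were scored three weeks later using previously defined criteria.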
row,Compound,herbicidal effect on barnyard grass (H)
1,CCCOc1ccc(-c2sc3c(Cl)cccc3c2-c2c(OC(=O)CCC)c(C)nn(C)c2=O)cc1 [4-028],5 (Herbicidal rate of 90% or more (almost completely withered))
2,CCCC(=O)Oc1c(C)nn(C)c(=O)c1-c1c(-c2ccc(SC)cc2)sc2c(F)cccc12 [4-051],5 (Herbicidal rate of 90% or more (almost completely withered))

# Tested on: late watergrass
# Assay: Test Example 1: herbicidal activity, application before weed generation under submerged conditions (Table 16, symbol A)
# Format: in vivo, late watergrass (Echinochloa oryzicola)
# Details: amount of applied herbicide 320 g/ha
# How it was run: as §1
row,Compound,"Herbicidal effect, A: late watergrass"
1,CCCOc1ccc(-c2sc3c(Cl)cccc3c2-c2c(OC(=O)CCC)c(C)nn(C)c2=O)cc1 [4-028],3 (Herbicidal rate of 40% or more and less than 70%)
2,CCCC(=O)Oc1c(C)nn(C)c(=O)c1-c1c(-c2ccc(SC)cc2)sc2c(F)cccc12 [4-051],4 (Herbicidal rate of 70% or more and less than 90%)

# Tested on: redroot pigweed
# Assay: Test Example 5: herbicidal effect by foliage application, plastic box (Table 20, symbol N)
# Format: in vivo, redroot pigweed (Amaranthus retroflexus)
# Details: 320 g/ha, foliage application after 14-day growth, evaluated three weeks after application
# How it was run: (§2)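 Post-emergence foliar test in sterilized diluvial soil. Compound applied as water-diluted emulsion at a predetermined rate to 14-day-old plants; evaluation at three weeks.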
row,Compound,herbicidal effect on N: redroot pigweed (evaluation grade 0-5)
1,CCCOc1ccc(-c2sc3c(Cl)cccc3c2-c2c(OC(=O)CCC)c(C)nn(C)c2=O)cc1 [4-028],5 (Herbicidal rate of 90% or more (almost completely withered))
2,CCCC(=O)Oc1c(C)nn(C)c(=O)c1-c1c(-c2ccc(SC)cc2)sc2c(F)cccc12 [4-051],5 (Herbicidal rate of 90% or more (almost completely withered))

# Tested on: southern crabgrass
# Assay: Test Example 5: herbicidal effect by foliage application, plastic box (Table 20, symbol F)
# Format: in vivo, southern crabgrass (Digitaria ciliaris)
# Details: 320 g/ha, foliage application after 14-day growth, evaluated three weeks after application
# How it was run: as §2
row,Compound,herbicidal effect on F: southern crabgrass (evaluation grade 0-5)
1,CCCOc1ccc(-c2sc3c(Cl)cccc3c2-c2c(OC(=O)CCC)c(C)nn(C)c2=O)cc1 [4-028],0 (Herbicidal rate of 5% or less (almost no effect))
2,CCCC(=O)Oc1c(C)nn(C)c(=O)c1-c1c(-c2ccc(SC)cc2)sc2c(F)cccc12 [4-051],0 (Herbicidal rate of 5% or less (almost no effect))

# Tested on: late watergrass
# Assay: Test Example 2: herbicidal activity, application during weed generation under submerged conditions (Table 17, symbol A)
# Format: in vivo, late watergrass (Echinochloa oryzicola)
# Details: AAH 320 g/ha; application during weed generation, submerged conditions
# How it was run: (§3)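 In this pot test, flooded alluvial soil (water depth 4 cm) holds all three species sown as a mixture. Once seedlings have one to two leaves, the compound's emulsion, thinned with water to the intended dose, is poured on the water; grading follows after three weeks on the earlier criteria.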
row,Compound,"herbicidal effect rating, A: late watergrass"
1,CCCOc1ccc(-c2sc3c(Cl)cccc3c2-c2c(OC(=O)CCC)c(C)nn(C)c2=O)cc1 [4-028],3 (Herbicidal rate of 40% or more and less than 70%)
2,CCCC(=O)Oc1c(C)nn(C)c(=O)c1-c1c(-c2ccc(SC)cc2)sc2c(F)cccc12 [4-051],3 (Herbicidal rate of 40% or more and less than 70%)

# Tested on: green foxtail
# Assay: Test Example 5: herbicidal effect by foliage application, plastic box (Table 20, symbol G)
# Format: in vivo, green foxtail (Setaria viridis)
# Details: 320 g/ha, foliage application after 14-day growth, evaluated three weeks after application
# How it was run: as §2
row,Compound,herbicidal effect on G: green foxtail (evaluation grade 0-5)
1,CCCOc1ccc(-c2sc3c(Cl)cccc3c2-c2c(OC(=O)CCC)c(C)nn(C)c2=O)cc1 [4-028],3 (Herbicidal rate of 40% or more and less than 70%)
2,CCCC(=O)Oc1c(C)nn(C)c(=O)c1-c1c(-c2ccc(SC)cc2)sc2c(F)cccc12 [4-051],3 (Herbicidal rate of 40% or more and less than 70%)

# Tested on: chickweed
# Assay: Test Example 4: herbicidal effect by soil treatment (Table 19, symbol P)
# Format: in vivo, common chickweed (Stellaria media)
# Details: amount of applied herbicide 320 g/ha
# How it was run: (§4)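 Emulsion of test compound, water-diluted to predetermined amount, sprayed on soil after sowing (seed depth ~1.5 cm, sterilized diluvial soil). Greenhouse, 25–30° C. Effect graded at three weeks post-spray.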
row,Compound,"Herbicidal effect by soil treatment, P: chickweed"
1,CCCOc1ccc(-c2sc3c(Cl)cccc3c2-c2c(OC(=O)CCC)c(C)nn(C)c2=O)cc1 [4-028],0 (Herbicidal rate of 5% or less (almost no effect))
2,CCCC(=O)Oc1c(C)nn(C)c(=O)c1-c1c(-c2ccc(SC)cc2)sc2c(F)cccc12 [4-051],4 (Herbicidal rate of 70% or more and less than 90%)

# Tested on: southern crabgrass
# Assay: Test Example 4: herbicidal effect by soil treatment (Table 19, symbol F)
# Format: in vivo, southern crabgrass (Digitaria ciliaris)
# Details: amount of applied herbicide 320 g/ha
# How it was run: as §4
row,Compound,"Herbicidal effect by soil treatment, F: southern crabgrass"
1,CCCOc1ccc(-c2sc3c(Cl)cccc3c2-c2c(OC(=O)CCC)c(C)nn(C)c2=O)cc1 [4-028],0 (Herbicidal rate of 5% or less (almost no effect))
2,CCCC(=O)Oc1c(C)nn(C)c(=O)c1-c1c(-c2ccc(SC)cc2)sc2c(F)cccc12 [4-051],0 (Herbicidal rate of 5% or less (almost no effect))

# Tested on: oval-leafed pondweed
# Assay: Test Example 2: herbicidal activity, application during weed generation under submerged conditions (Table 17, symbol C)
# Format: in vivo, oval-leafed pondweed (Monochoria vaginalis)
# Details: AAH 320 g/ha; application during weed generation, submerged conditions
# How it was run: as §3
row,Compound,"herbicidal effect rating, C: oval-leafed pondweed"
1,CCCOc1ccc(-c2sc3c(Cl)cccc3c2-c2c(OC(=O)CCC)c(C)nn(C)c2=O)cc1 [4-028],0 (Herbicidal rate of 5% or less (almost no effect))
2,CCCC(=O)Oc1c(C)nn(C)c(=O)c1-c1c(-c2ccc(SC)cc2)sc2c(F)cccc12 [4-051],0 (Herbicidal rate of 5% or less (almost no effect))

# Tested on: velvetleaf
# Assay: Test Example 4: herbicidal effect by soil treatment (Table 19, symbol M)
# Format: in vivo, velvetleaf (Abutilon theophrasti)
# Details: amount of applied herbicide 320 g/ha
# How it was run: as §4
row,Compound,"Herbicidal effect by soil treatment, M: velvetleaf"
1,CCCOc1ccc(-c2sc3c(Cl)cccc3c2-c2c(OC(=O)CCC)c(C)nn(C)c2=O)cc1 [4-028],1 (Herbicidal rate of 5% or more and less than 20%)
2,CCCC(=O)Oc1c(C)nn(C)c(=O)c1-c1c(-c2ccc(SC)cc2)sc2c(F)cccc12 [4-051],0 (Herbicidal rate of 5% or less (almost no effect))

# Tested on: windgrass
# Assay: Test Example 4: herbicidal effect by soil treatment (Table 19, symbol L)
# Format: in vivo, windgrass (Apera spica-venti)
# Details: amount of applied herbicide 320 g/ha
# How it was run: as §4
row,Compound,"Herbicidal effect by soil treatment, L: windgrass"
1,CCCOc1ccc(-c2sc3c(Cl)cccc3c2-c2c(OC(=O)CCC)c(C)nn(C)c2=O)cc1 [4-028],0 (Herbicidal rate of 5% or less (almost no effect))
2,CCCC(=O)Oc1c(C)nn(C)c(=O)c1-c1c(-c2ccc(SC)cc2)sc2c(F)cccc12 [4-051],0 (Herbicidal rate of 5% or less (almost no effect))

# Tested on: redroot pigweed
# Assay: Test Example 4: herbicidal effect by soil treatment (Table 19, symbol N)
# Format: in vivo, redroot pigweed (Amaranthus retroflexus)
# Details: amount of applied herbicide 320 g/ha
# How it was run: as §4
row,Compound,"Herbicidal effect by soil treatment, N: redroot pigweed"
1,CCCOc1ccc(-c2sc3c(Cl)cccc3c2-c2c(OC(=O)CCC)c(C)nn(C)c2=O)cc1 [4-028],4 (Herbicidal rate of 70% or more and less than 90%)
2,CCCC(=O)Oc1c(C)nn(C)c(=O)c1-c1c(-c2ccc(SC)cc2)sc2c(F)cccc12 [4-051],5 (Herbicidal rate of 90% or more (almost completely withered))

# Tested on: Japanese bulrush
# Assay: Test Example 1: herbicidal activity, application before weed generation under submerged conditions (Table 16, symbol B)
# Format: in vivo, Japanese bulrush (Schoenoplectus juncoides)
# Details: amount of applied herbicide 320 g/ha
# How it was run: as §1
row,Compound,"Herbicidal effect, B: Japanese bulrush"
1,CCCOc1ccc(-c2sc3c(Cl)cccc3c2-c2c(OC(=O)CCC)c(C)nn(C)c2=O)cc1 [4-028],3 (Herbicidal rate of 40% or more and less than 70%)
2,CCCC(=O)Oc1c(C)nn(C)c(=O)c1-c1c(-c2ccc(SC)cc2)sc2c(F)cccc12 [4-051],3 (Herbicidal rate of 40% or more and less than 70%)

# Tested on: persian speedwell
# Assay: Test Example 4: herbicidal effect by soil treatment (Table 19, symbol R)
# Format: in vivo, Persian speedwell (Veronica persica)
# Details: amount of applied herbicide 320 g/ha
# How it was run: as §4
row,Compound,"Herbicidal effect by soil treatment, R: persian speedwell"
1,CCCOc1ccc(-c2sc3c(Cl)cccc3c2-c2c(OC(=O)CCC)c(C)nn(C)c2=O)cc1 [4-028],1 (Herbicidal rate of 5% or more and less than 20%)
2,CCCC(=O)Oc1c(C)nn(C)c(=O)c1-c1c(-c2ccc(SC)cc2)sc2c(F)cccc12 [4-051],5 (Herbicidal rate of 90% or more (almost completely withered))

# Tested on: wild oat
# Assay: Test Example 4: herbicidal effect by soil treatment (Table 19, symbol I)
# Format: in vivo, wild oat (Avena fatua)
# Details: amount of applied herbicide 320 g/ha
# How it was run: as §4
row,Compound,"Herbicidal effect by soil treatment, I: wild oat"
1,CCCOc1ccc(-c2sc3c(Cl)cccc3c2-c2c(OC(=O)CCC)c(C)nn(C)c2=O)cc1 [4-028],0 (Herbicidal rate of 5% or less (almost no effect))
2,CCCC(=O)Oc1c(C)nn(C)c(=O)c1-c1c(-c2ccc(SC)cc2)sc2c(F)cccc12 [4-051],0 (Herbicidal rate of 5% or less (almost no effect))
